Entries after “also recorded” stand apart in the source; their conditions may differ. *1 amine or outer side, *2 acyl side, *3 side chain or, on linkers, in order; H or OH if unused. Where a SMILES comes first, the peptide text is derived from it. [ ]: non-standard residue; d: D form. The star is where a group is joined. hPhe = N[CH](CCc1ccccc1)C(=O)O; Morpholide = C1CN(*)CCO1; CO = O=C([*:1])[*:2]; CH2F = FC*
Tests used:
[1] = test system: reovirus; type: cell-based, Dearing strain of reovirus serotype 3
[2] = test system: reovirus; conditions: pharmacological inhibition of cellular cathepsin B; cited from earlier work
[3] = test system: reovirus; test: Electron microscopy of reovirus-infected HT1080 cells; type: cell-based, Dearing strain of reovirus serotype 3; conditions: HT1080, MOI of 40, 20 μM, 48 hr post-infection
Experimental: FIGS. 2A-2B: Electron microscopic analysis of reovirus infected HT1080 cells in the presence or absence of Z-FA-FMK treatment. HT1080 cells grown to 50-70% confluency were infected with reovirus at MOI of 40, then either Z-FA-FMK (20 μM) or control medium was added in the culture medium. After 48 hr culture, cells were prepared for electron microscopic examination as described in the Examples. (FIG. 2A) HT1080 infected with reovirus in the absence of Z-FA-FMK showing scattered virions and viral inclusions (factory) (arrows) in the perinuclear region. Scale represents 500 nm×10,000 (above). […] Scale represents 100 nm×80,000 (FIG. 2B) HT1080 infected with reovirus in the presence of Z-FA-FMK showing scattered reovirus virion particles (arrows) but no reoviral inclusions in the perinuclear region. Scale represents 500 nm×10,000 (above). Scattered virions with empty shell (arrows) are present in perinuclear region (bottom). Scale represents 200 nm×40,000.
EM preparation was performed by the University of Calgary Microscopy & Imaging Facility. Cells grown on glass slides were rinsed briefly with PBS (phosphate buffered saline) and fixed with 4% EM grade glutaraldehyde in 0.1 M cacodylate buffer (pH 7.4) for 1 hr at room temperature (RT). After washing three times with the same buffer, cells were post-fixed in 1% osmium tetroxide buffered with 0.1 M cacodylate for 1 hr at RT. […]

[4] = test system: reovirus; test: HT1080 tumor xenograft in SCID mice with intratumoral reovirus, immunohistochemistry of tumor and heart; type: in vivo; conditions: 0.02 mg intratumorally, 16 days post-viral injection
Experimental: FIGS. 4A-4B: Z-FA-FMK blocks reovirus infection in vivo. (FIG. 4A) HT1080 cells were injected subcutaneously into hind flanks of SCID mice. After palpable tumors were established (11 days after implantation), tumors were injected with Live reovirus (L Reo; n=5 tumors), UV-inactivated reovirus (D Reo; n=5 tumors), Z-FA-FMK (FA; n=5 tumors) and Live reovius suspended in Z-FA-FMK solution (Reo+FA; n=5 tumors). Tumor growth was measured externally using calipers. Z-FA-FMK was dissolved in DMSO and administered as 0.02 mg suspended in PBS intratumorally per mouse everyday up to 7 days post viral injection, and every 2 days until completion of the experiment. […] Paraffin sections of tumors and heart tissues were analyzed by indirect immunohistochemical staining using reovirus antiserum as described in the Examples. […]
SCID mice (6-8 weeks, Charles River, Wilmington, Mass.) received a single subcutaneous implantation of 5×10^6 cells of HT1080 cells suspended in PBS. […] Tumor growth was measured externally using calipers and the volume was determined by the equation V=(L×W^2)×0.5, where L is the largest dimension and W is the largest dimension perpendicular to L. Z-FA-FMK was dissolved in DMSO and administered as 0.02 mg suspended in PBS intratumorally per mouse every day up to 7 days post viral injection, and every 2 days until completion of the experiment. […]

[5] = test system: HIV type 1 virus; type: cell-based, HIV type 1 strain (NL4-3)
[6] = molecular target: cellular cathepsin B (Homo sapiens, UniProt P07858); conditions: cited from earlier work
[7] = test system: myxoma virus; type: cell-based, myxoma virus (strain Lausanne)
[8] = test system: influenza A virus; test: Influenza A infection of Mv1Lu cells, FACS; type: cell-based, Flu type A (A/New Cale/H1N1); conditions: 20 μM, 4 days

Molecule: O=C(CF)C(CCc1ccccc1)NC(=O)C(Cc1ccccc1)NC(=O)N1CCOCC1 (stereo not drawn) [Mu-FhF-FMK, N-Morpholineurea-phenylalanyl-homophenylalanyl-fluoromethylketone] ({Morpholide-CO}-Phe-[hPhe]-CH2F; configuration not given here)
- reovirus-mediated cytopathogenicity [1]: effectively inhibited reovirus-mediated cytopathogenicity

Molecule: CCCNC(=O)[C@H]1O[C@@H]1C(=O)N[C@H](C(=O)N1CCC[C@H]1C(=O)OC)[C@@H](C)CC [CA-074Me]
- reovirus viral yield [2]: decreased viral yields yet not a complete blockage of viral yield

Molecule: Z-Val-Ala-Asp-fluoromethylketone [Z-VAD-FMK]
- reovirus-mediated cytopathogenicity [1]: effectively inhibited reovirus-mediated cytopathogenicity

Molecule: C[C@H](NC(=O)[C@H](Cc1ccccc1)NC(=O)OCc1ccccc1)C(=O)CF [Z-FA-FMK, N-benzyloxycarbonyl-Phe-Ala-fluoromethylketone]
- viral factory formation (EM) [3]: did not form these viral factories
- virion morphology (EM) [3]: all of the scattered viral particles contained empty capsids
- reovirus replication activity in heart tissue (immunohistochemistry) [4]: effectively blocked
- reovirus replication activity in tumor tissue (immunohistochemistry) [4]: effectively blocked
- reoviral replication potential by FACS (reoviral antigen) [1]: effectively suppressed reoviral replication potential in a dose-dependent manner
- reovirus replication (cytopathic morphology, viral antigens by western blotting and FACS) [1]: completely blocked reovirus replication
- viral replication activity of HIV-1 [5]: did not affect viral replication activity
- inactivation of cathepsin B [6]: potent inactivator of cellular cathepsin B
- GFP expression level of BGMK monolayers [7]: significantly suppressed
- myxoma infectivity (GFP expressing cells) [7]: inhibitory effects were not detectable
- myxoma virus foci development [7]: significantly suppressed as Z-FA-FMK dosages were increased; also recorded: the inhibition of foci development is more readily detectable
- viral replication activity of influenza A [8]: did not affect viral replication activity

— US20080227688A1, “Inhibition of viral replication” (priority 2007, published 2008)
